The text below walks through data of patent publication US20070196442A1, “Method for improving the oral administration of alpha-lipoic acid” (priority 2006, published 2007).

Each structure is given as a SMILES string.

Data set [1] is described as follows: double-blind, randomized comparative taste-test of oral alpha-lipoic acid solutions (throat irritation, overall liking). As to conditions: of seventeen subjects. It is filed as in vivo.
The nature of the next data set: pH of aqueous solution. It is filed as physicochemical. As to conditions: noted by the inventors.
The conditions of data set [2]: background / U.S. Pat. No. 3,562,273; cited from earlier work.

`O=C(O)CCCC[C@@H]1CCSS1` [ALA, 5-[(3R)-dithiolan-3-yl]pentanoic acid]: the “number of subjects ranking the sample as the most irritating of the three samples” value in data set [1] is given as “fourteen”.

Turning to `NC(CO)(CO)CO.O=C(O)CCCCC1CCSS1` (stereo not shown) [TR-ALA, tris(hydroxymethyl) amino methane thioctate], the “pH of the salt” value in “pH of aqueous solution” was 6.5 to 7.5. The “pH in a 0.1M aqueous solution” value in data set [2] is given as 6.5.

Turning to `NC(CO)(CO)CO` [trometamol, 2-amino-2-(hydroxymethyl)propane-1,3-diol], in data set [2], the “pH in a 0.1M aqueous solution” value is 10.4.
